Structures are written as SMILES.

Experiment [1] has as its target T1, Type-2 angiotensin II receptor (Homo sapiens, UniProt P50052).
T1 sequence (P50052 whole entry): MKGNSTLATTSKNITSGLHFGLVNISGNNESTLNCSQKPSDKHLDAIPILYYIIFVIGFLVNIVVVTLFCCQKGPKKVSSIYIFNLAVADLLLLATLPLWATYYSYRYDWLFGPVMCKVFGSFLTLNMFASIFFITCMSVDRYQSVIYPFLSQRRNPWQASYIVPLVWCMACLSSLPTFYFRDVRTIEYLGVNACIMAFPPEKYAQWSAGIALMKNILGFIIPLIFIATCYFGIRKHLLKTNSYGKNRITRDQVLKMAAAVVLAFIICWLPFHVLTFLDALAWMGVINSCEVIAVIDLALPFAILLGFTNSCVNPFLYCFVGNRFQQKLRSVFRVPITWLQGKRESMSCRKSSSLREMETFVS
It counts as functional.

Experiment [2] deals with T2, Retinoic acid receptor beta (Homo sapiens, UniProt P10826).
T2 sequence (P10826 whole entry): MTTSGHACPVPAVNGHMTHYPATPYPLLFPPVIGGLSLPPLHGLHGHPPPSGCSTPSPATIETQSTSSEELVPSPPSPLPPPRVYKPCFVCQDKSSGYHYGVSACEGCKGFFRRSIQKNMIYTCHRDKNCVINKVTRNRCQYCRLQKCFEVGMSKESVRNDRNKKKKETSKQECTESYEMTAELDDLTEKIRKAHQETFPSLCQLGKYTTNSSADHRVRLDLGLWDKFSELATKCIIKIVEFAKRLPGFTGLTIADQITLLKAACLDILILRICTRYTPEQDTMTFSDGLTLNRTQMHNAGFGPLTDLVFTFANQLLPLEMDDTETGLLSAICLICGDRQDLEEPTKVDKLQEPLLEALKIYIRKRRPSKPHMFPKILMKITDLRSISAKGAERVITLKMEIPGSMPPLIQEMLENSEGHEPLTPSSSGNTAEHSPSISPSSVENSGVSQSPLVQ
Type of experiment: functional, cell-based.

Experiment [3] addresses T3, Bile acid receptor (Homo sapiens, UniProt Q96RI1).
T3 sequence (Q96RI1 whole entry): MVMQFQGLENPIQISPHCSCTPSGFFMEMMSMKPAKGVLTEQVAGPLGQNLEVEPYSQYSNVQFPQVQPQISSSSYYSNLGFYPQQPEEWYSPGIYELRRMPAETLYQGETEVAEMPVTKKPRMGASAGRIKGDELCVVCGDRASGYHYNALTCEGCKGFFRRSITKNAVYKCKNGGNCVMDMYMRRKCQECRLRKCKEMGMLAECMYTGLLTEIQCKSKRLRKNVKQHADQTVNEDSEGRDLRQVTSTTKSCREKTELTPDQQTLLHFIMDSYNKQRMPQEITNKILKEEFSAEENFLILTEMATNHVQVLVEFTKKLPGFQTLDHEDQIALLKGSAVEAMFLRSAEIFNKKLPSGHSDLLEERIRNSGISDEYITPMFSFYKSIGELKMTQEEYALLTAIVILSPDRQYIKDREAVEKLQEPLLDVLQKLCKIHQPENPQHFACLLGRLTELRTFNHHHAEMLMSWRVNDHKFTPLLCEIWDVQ
It counts as functional.

In experiment [4] the target is T4, Retinoic acid receptor alpha (Homo sapiens, UniProt P10276).
T4 sequence (P10276 whole entry): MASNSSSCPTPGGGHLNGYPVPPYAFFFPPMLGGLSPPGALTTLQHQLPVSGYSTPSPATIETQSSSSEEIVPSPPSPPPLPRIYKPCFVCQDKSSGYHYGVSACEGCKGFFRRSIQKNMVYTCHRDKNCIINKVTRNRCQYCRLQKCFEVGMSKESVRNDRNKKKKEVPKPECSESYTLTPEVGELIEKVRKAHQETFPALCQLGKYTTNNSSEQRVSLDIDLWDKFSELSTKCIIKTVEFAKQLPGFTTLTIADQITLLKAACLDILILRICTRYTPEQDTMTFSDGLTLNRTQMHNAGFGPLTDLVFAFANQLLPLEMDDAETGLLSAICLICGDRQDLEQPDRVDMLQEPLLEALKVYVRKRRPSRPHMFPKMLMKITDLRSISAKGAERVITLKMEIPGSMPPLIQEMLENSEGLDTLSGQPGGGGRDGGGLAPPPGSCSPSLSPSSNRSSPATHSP
It counts as functional, cell-based.

The target of experiment [5] is T3, Bile acid receptor. Type of experiment: functional. The source holds these as a separate data set.
The target of experiment [6] is T5, Oxysterols receptor LXR-beta (Homo sapiens, UniProt P55055).
T5 sequence (P55055 whole entry): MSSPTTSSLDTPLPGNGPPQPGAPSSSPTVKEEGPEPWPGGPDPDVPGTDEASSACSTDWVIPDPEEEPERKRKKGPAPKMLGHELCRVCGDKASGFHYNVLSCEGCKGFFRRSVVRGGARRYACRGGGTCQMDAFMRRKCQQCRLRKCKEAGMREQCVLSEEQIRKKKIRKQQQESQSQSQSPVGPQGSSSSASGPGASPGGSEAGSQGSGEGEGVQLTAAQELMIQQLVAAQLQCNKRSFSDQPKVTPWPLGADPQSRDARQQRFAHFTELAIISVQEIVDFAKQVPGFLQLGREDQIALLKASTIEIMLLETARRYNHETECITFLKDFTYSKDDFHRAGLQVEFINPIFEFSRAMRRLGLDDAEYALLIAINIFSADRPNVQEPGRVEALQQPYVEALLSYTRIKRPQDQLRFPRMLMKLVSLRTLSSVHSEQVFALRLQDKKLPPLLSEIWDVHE
It counts as functional.

Experiment [7] concerns the target T6, Retinoic acid receptor gamma (Homo sapiens, UniProt P13631).
T6 sequence (P13631 whole entry): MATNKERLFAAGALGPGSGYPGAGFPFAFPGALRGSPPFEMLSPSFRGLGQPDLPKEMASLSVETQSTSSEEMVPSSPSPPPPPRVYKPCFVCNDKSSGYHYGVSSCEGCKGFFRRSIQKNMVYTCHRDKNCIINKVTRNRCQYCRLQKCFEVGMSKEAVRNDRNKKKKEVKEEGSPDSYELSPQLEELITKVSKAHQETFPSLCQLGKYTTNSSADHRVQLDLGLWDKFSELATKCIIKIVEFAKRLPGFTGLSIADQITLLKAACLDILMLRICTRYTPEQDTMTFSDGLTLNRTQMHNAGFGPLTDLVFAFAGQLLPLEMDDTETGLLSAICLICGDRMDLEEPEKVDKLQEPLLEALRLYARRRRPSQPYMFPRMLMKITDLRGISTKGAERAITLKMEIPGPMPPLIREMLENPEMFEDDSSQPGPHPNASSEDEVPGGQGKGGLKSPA
It counts as functional, cell-based.
Further: assay procedure not described here.

The compound `C[C@H](CS)C(=O)N1CCC[C@H]1C(=O)O` [CAPTOPRIL] gave an AC50 in experiment [1] above 100 µM.

Turning to `CC(C)/N=c1\cc2n(-c3ccc(Cl)cc3)c3ccccc3nc-2cc1Nc1ccc(Cl)cc1` [CLOFAZIMINE], the AC50 (in experiment [2]; on Bile acid receptor [3]; in experiment [4]; on Bile acid receptor [5]; in experiment [6]; in experiment [7]) was above 30 µM each time.

For the origin of these results see ChEMBL document CHEMBL5291721, “A preclinical secondary pharmacology resource illuminates target-adverse drug reaction associations of marketed drugs” (Nat Commun, 2023).
